# From ChEMBL document CHEMBL3875185, “Structure-anticonvulsant activity studies in the group of (E)-N-cinnamoyl aminoalkanols derivatives monosubstituted in phenyl ring with 4-Cl, 4-CH3 or 2-CH3” (Bioorg Med Chem, 2017)
# Activity calls are given as the source filed them. The calls are words filed in the database; no cut-off is given here.
# Assays:
# [1] = system: Rattus norvegicus; experiment: Neurotoxicity in Sprague-Dawley rat assessed as behavioral change at 30 mg/kg, po measured at 0.5 hrs post dose; assay type: toxicity, organism-based; details: in vivo
# [2] = target: T1, Muscarinic acetylcholine receptor M5 (Homo sapiens) (UniProt P08912); experiment: Displacement of [3H]4-DAMP from human recombinant M5 receptor expressed in CHO cells at 100 uM measured after 60 mins by scintillation counting method relative to control; assay type: cell-based
# T1 sequence (whole entry): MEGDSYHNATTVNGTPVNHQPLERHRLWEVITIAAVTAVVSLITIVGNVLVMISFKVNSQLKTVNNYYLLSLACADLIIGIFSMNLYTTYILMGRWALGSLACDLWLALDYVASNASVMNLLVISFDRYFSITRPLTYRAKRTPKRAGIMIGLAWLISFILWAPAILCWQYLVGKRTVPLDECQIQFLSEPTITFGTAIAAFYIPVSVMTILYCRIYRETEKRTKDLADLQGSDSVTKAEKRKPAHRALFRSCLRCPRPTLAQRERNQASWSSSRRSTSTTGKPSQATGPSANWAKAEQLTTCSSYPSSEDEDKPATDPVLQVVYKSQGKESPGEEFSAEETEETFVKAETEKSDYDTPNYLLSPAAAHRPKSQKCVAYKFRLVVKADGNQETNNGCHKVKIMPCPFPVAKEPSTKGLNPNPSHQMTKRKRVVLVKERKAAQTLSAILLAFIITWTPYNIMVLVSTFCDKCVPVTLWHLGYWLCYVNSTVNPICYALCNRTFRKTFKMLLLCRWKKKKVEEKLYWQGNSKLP
# [3] = target: T2, 5-hydroxytryptamine receptor 2C (Homo sapiens) (UniProt P28335); experiment: Displacement of [3H]mesulergine from human recombinant 5HT2C receptor expressed in HEK293 cells at 100 uM measured after 120 mins by scintillation counting method relative to control; assay type: cell-based
# T2 sequence (whole entry): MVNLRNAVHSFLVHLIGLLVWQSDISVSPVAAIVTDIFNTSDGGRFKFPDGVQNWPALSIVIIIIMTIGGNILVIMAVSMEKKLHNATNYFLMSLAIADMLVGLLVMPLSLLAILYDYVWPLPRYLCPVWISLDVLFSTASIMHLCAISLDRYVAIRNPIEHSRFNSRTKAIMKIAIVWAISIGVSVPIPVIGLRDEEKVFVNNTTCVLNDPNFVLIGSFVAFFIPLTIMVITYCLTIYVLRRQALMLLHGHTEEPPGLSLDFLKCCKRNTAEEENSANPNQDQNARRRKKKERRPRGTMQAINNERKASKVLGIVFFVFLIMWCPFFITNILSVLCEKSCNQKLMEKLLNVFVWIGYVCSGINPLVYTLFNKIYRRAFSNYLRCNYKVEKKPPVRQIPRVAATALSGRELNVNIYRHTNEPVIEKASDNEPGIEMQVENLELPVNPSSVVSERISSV
# [4] = target: Sodium-dependent serotonin transporter (Homo sapiens) (UniProt P31645); experiment: Displacement of [3H]imipramine from human recombinant 5HT transporter expressed in CHO cells at 100 uM measured after 60 mins by scintillation counting method relative to control; assay type: cell-based
# [5] = target: Muscarinic acetylcholine receptor M3 (Homo sapiens) (UniProt P20309); experiment: Displacement of [3H]4-DAMP from human recombinant M3 receptor expressed in CHO cells at 100 uM measured after 60 mins by scintillation counting method relative to control; assay type: cell-based
# [6] = system: Mus musculus; experiment: Neurotoxicity in ip dosed mouse assessed as induction of motor impairment by measuring time to peak effect by rotarod method; assay type: toxicity, organism-based; details: in vivo
# [7] = target: Substance-P receptor (Homo sapiens) (UniProt P25103); experiment: Displacement of [125I]BH-SP from NK1 receptor in human U373MG cells at 100 uM measured after 30 mins by scintillation counting method relative to control; assay type: cell-based; details: U-373MG ATCC
# [8] = system: Mus musculus; experiment: Anticonvulsant activity in pentylenetetrazole induced seizure mouse model assessed as no observable episode of clonic convulsion of at least 5 secs at 300 mg/kg, ip measured at 0.5 hrs post dose; assay type: functional, organism-based
# [9] = system: Mus musculus; experiment: Anticonvulsant activity in ip dosed 6-Hz induced seizure mouse model assessed as restoration of normal activity within 10 secs from stimulation at 32 mA; assay type: functional
# [10] = target: Prostaglandin E2 receptor EP4 subtype (Homo sapiens) (UniProt P35408); experiment: Displacement of [3H]PGE2 from human recombinant EP4 receptor expressed in HEK293 cells at 100 uM measured after 120 mins by scintillation counting method relative to control; assay type: cell-based
# [11] = Neurotoxicity in po dosed Sprague-Dawley rat assessed as behavioral change; assay type: toxicity, organism-based; details: in vivo
# [12] = species on record: Rattus norvegicus; experiment: Displacement of [3H]batrachotoxinin from rat cerebral cortex sodium channel site 2 at 100 uM measured after 60 mins by scintillation counting method relative to control
# [13] = target: T3, Substance-K receptor (Homo sapiens) (UniProt P21452); experiment: Displacement of [125I]NKA from human recombinant NK2 receptor expressed in CHO cells at 100 uM measured after 60 mins by scintillation counting method relative to control; assay type: cell-based
# T3 sequence (whole entry): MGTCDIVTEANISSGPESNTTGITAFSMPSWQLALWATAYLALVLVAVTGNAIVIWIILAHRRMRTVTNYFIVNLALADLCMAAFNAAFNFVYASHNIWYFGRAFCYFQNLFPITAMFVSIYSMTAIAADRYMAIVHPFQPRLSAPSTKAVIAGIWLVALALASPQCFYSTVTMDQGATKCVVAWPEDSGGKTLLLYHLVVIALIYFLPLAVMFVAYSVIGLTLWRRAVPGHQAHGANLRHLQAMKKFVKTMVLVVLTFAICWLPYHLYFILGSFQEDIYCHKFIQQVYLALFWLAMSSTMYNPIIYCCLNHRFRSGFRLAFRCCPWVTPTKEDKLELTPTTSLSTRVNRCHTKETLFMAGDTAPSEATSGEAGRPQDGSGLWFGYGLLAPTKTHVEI
# [14] = target: T4, Cholecystokinin receptor type A (Homo sapiens) (UniProt P32238); experiment: Displacement of [125I]CCK-8s from human recombinant CCK1 receptor expressed in CHO cells at 100 uM measured after 60 mins by scintillation counting method relative to control; assay type: cell-based
# T4 sequence (whole entry): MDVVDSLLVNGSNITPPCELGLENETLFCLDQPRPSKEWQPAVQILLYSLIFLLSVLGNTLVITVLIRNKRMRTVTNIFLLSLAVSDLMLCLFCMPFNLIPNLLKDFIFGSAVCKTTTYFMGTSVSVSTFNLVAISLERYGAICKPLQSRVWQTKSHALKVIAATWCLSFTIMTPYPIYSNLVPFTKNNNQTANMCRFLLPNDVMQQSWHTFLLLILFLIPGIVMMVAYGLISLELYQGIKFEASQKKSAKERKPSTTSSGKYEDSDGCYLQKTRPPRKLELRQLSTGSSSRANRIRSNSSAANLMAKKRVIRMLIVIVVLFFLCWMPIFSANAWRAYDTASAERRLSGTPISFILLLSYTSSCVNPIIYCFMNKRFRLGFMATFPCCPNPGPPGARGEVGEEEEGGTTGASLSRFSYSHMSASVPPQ
# [15] = target: Cannabinoid receptor 1 (Homo sapiens) (UniProt P21554); experiment: Displacement of [3H]CP 55940 from human recombinant CB1 receptor expressed in CHO cells at 100 uM measured after 120 mins by scintillation counting method relative to control; assay type: cell-based
# Chain of Cannabinoid receptor 1 (Homo sapiens) (P21554 whole entry): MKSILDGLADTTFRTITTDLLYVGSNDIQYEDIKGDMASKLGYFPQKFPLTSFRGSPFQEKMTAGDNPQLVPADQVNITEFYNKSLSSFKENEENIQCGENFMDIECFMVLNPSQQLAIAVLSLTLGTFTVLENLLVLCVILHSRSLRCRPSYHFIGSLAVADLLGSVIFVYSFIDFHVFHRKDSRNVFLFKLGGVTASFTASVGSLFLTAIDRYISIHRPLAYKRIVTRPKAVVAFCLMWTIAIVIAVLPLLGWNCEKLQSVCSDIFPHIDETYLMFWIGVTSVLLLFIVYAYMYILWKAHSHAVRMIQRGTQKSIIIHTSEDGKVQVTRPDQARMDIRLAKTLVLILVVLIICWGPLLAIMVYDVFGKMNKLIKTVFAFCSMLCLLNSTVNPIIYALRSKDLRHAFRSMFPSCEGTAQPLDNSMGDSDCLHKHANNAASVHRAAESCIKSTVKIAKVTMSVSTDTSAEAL
# Chain of Sodium-dependent serotonin transporter (Homo sapiens) (P31645 whole entry, looked up): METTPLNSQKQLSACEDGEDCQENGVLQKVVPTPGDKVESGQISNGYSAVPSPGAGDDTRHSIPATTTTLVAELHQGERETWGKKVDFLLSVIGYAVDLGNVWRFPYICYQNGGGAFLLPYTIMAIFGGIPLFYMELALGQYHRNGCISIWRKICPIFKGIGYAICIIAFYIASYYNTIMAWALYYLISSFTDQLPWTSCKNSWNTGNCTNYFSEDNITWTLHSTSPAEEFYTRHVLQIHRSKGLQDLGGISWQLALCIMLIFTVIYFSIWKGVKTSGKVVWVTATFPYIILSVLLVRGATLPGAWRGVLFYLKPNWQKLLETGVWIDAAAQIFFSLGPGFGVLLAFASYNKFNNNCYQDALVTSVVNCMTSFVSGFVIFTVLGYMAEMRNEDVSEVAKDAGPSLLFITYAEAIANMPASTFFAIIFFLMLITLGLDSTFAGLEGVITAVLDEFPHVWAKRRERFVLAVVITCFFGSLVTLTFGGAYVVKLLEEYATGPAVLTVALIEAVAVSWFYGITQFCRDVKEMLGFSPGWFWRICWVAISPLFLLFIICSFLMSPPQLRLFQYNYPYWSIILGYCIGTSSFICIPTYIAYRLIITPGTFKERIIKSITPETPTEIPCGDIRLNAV
# Chain of Muscarinic acetylcholine receptor M3 (Homo sapiens) (P20309 whole entry, looked up): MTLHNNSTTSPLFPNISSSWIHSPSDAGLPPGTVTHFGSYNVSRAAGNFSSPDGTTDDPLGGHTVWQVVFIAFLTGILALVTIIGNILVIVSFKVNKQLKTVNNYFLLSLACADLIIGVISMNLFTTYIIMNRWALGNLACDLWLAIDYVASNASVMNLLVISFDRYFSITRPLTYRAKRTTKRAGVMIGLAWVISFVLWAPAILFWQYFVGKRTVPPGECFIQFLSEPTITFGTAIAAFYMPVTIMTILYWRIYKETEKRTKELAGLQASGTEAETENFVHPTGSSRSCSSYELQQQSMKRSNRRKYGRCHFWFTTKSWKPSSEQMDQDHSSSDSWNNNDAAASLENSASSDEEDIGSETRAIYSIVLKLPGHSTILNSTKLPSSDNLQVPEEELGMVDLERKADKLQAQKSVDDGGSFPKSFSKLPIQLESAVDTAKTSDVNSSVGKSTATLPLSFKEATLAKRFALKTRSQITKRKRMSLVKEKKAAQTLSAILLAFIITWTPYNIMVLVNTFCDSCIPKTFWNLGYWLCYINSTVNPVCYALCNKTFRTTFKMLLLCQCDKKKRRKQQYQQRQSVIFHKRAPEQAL
# Chain of Prostaglandin E2 receptor EP4 subtype (Homo sapiens) (P35408 whole entry): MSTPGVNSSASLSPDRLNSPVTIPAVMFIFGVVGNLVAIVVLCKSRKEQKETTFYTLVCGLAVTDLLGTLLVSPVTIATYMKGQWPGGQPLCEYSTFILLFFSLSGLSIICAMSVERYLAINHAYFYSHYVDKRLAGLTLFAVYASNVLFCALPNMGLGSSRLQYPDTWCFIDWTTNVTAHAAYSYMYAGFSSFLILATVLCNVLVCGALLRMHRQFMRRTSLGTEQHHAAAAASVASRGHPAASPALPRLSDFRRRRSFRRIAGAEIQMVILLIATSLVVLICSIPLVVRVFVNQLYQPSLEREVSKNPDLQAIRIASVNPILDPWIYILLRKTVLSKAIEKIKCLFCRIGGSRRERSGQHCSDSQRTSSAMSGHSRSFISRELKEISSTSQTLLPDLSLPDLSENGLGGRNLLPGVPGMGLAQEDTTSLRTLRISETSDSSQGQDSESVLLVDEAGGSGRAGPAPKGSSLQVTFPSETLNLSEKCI
# Chain of Substance-P receptor (Homo sapiens) (P25103 whole entry): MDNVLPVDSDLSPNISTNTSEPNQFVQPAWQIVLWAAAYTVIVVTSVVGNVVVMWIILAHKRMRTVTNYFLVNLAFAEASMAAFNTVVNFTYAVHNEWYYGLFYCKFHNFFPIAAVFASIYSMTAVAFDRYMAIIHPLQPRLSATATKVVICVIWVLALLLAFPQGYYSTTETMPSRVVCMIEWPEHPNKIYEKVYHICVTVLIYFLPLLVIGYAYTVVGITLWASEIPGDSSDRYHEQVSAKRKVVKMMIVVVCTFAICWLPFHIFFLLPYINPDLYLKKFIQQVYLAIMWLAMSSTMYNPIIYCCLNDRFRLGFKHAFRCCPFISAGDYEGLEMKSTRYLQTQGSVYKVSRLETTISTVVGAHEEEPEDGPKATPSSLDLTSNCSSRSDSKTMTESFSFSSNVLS
SMILES,Activity [1],inhibition [2] [%],inhibition [3] [%],inhibition [4] [%],inhibition [5] [%],Time [6] [h],inhibition [7] [%],Activity [8],ED50 [9] [mg/kg],inhibition [10] [%],TD50 [11] [mg/kg],inhibition [12] [%],inhibition [13] [%],inhibition [14] [%],inhibition [15] [%]
Cc1ccccc1/C=C/C(=O)N[C@@H](C)CO,Non-Toxic,-7.5,81.2,0.9,-2,0.5,-5.7,Active,52.6,16.7,> 500,-2.3,1.2,-5.8,9.1
CC(O)CNC(=O)/C=C/c1ccc(Cl)cc1 (stereo not given),Non-Toxic,-5.9,23.4,-1.9,2.9,0.25,3.1,Active,42.3,23.6,> 500,10.2,19.5,26,4.7
CCC(CO)NC(=O)/C=C/c1ccc(Cl)cc1 (stereo not given),Non-Toxic,-9.2,24.5,-2.5,1.5,0.25,3,Active,57.6,29.7,277,28.4,48.3,11,11.5
